Source: ChEMBL document CHEMBL6153072, “Metabolically Stable Adenylation Inhibitors of Biotin Protein Ligase as Antibacterial Agents” (J Med Chem, 2025)
pIC50, pKd: −log10 of the molar value.

Columns and labels:
[1] = target: T1, Biotin--[acetyl-CoA-carboxylase] ligase (Mycobacterium tuberculosis (strain ATCC 25618 / H37Rv)) (UniProt I6YFP0); assay: Binding affinity to Mycobacterium tuberculosis BPL assessed as change in enthalpy by isothermal titration calorimetry
T1 sequence (whole entry): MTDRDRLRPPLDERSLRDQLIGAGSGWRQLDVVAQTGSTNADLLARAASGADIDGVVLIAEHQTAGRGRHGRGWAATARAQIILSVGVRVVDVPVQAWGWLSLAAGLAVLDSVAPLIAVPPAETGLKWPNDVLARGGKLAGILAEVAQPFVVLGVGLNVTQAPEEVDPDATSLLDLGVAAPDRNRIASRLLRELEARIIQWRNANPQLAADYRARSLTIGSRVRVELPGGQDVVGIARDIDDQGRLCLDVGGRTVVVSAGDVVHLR

[2] = target: T1, Biotin--[acetyl-CoA-carboxylase] ligase (Mycobacterium tuberculosis (strain ATCC 25618 / H37Rv)); assay: Binding affinity to Mycobacterium tuberculosis BPL assessed as change in gibbs free energy by isothermal titration calorimetry
[3] = target: T2, Biotin--[acetyl-CoA-carboxylase] ligase (Mycobacterium tuberculosis (strain ATCC 25618 / H37Rv), UniProt I6YFP0); assay: Binding affinity to Mycobacterium tuberculosis BPL assessed as dissociation constant by isothermal titration calorimetry
T2 sequence (I6YFP0 whole entry): T1 sequence (whole entry)

[4] = target: T1, Biotin--[acetyl-CoA-carboxylase] ligase (Mycobacterium tuberculosis (strain ATCC 25618 / H37Rv)); assay: Binding affinity to Mycobacterium tuberculosis BPL assessed as change in entropy by isothermal titration calorimetry
Staphylococcus aureus [5] = assay: Antimicrobial activity against methicillin-resistant Staphylococcus aureus FPR3757 assessed as inhibition of microbial growth incubated for 14 days in biotin-deficient GAST medium by broth microdilution assay; type: functional; settings: FPR3757, 336 h, time 14 day
[6] = system: Mycobacterium tuberculosis; assay: Antimicrobial activity against wild type Mycobacterium tuberculosis H37Rv assessed as inhibition of microbial growth incubated for 14 days in biotin-deficient GAST medium by broth microdilution assay; type: functional; settings: 336 h, time 14 day
Staphylococcus aureus [7] = assay: Antimicrobial activity against methicillin-sensitive Staphylococcus aureus […] assessed as inhibition of microbial growth incubated for 14 days in biotin-deficient GAST medium by broth microdilution assay; type: functional; settings: 336 h, time 14 day
[8] = Clearance in female CD-1 mouse at 5 mg/kg, iv administered […] measured after 24 hrs by LC-MS/MS analysis; type: ADME, organism-based; settings: in vivo
[9] = Drug metabolism in female CD-1 mouse assessed as AUC (0 to 24 hrs) of adenosine-5-sulfamide metabolite at 5 mg/kg, iv administered […] measured after 24 hrs by LC-MS/MS analysis; type: ADME, organism-based; settings: in vivo
[10] = Half life in female CD-1 mouse at 5 mg/kg, iv administered […] measured after 24 hrs by LC-MS/MS analysis; type: ADME, organism-based; settings: in vivo
HepG2 = assay: Cytotoxicity against human HepG2 cells assessed as inhibition of cell viability preincubated for 24 hrs and measured after 4 hrs by XTT assay; type: functional, cell-based
[11] = AUC (0 to 24 hrs) in female CD-1 mouse at 5 mg/kg, iv administered […] measured after 24 hrs by LC-MS/MS analysis; type: ADME, organism-based; settings: in vivo
[12] = Volume of distribution in female CD-1 mouse at 5 mg/kg, iv administered […] measured after 24 hrs by LC-MS/MS analysis; type: ADME, organism-based; settings: in vivo
[13] = AUC (0 to 24 hrs) in female CD-1 mouse at 10 mg/kg, iv administered […] measured after 24 hrs by LC-MS/MS analysis; type: ADME, organism-based; settings: in vivo
[14] = Clearance in female CD-1 mouse at 10 mg/kg, iv administered […] measured after 24 hrs by LC-MS/MS analysis; type: ADME, organism-based; settings: in vivo
[15] = Volume of distribution in female CD-1 mouse at 10 mg/kg, iv administered […] measured after 24 hrs by LC-MS/MS analysis; type: ADME, organism-based; settings: in vivo
[16] = Half life in female CD-1 mouse at 10 mg/kg, iv administered via gavage measured after 24 hrs by LC-MS/MS analysis; settings: in vivo
[17] = Hepatic clearance in female CD-1 mouse at 5 mg/kg, iv administered […] measured after 24 hrs by LC-MS/MS analysis; type: ADME, organism-based; settings: in vivo
[18] = Renal clearance in female CD-1 mouse at 5 mg/kg, iv administered […] measured after 24 hrs by LC-MS/MS analysis; type: ADME, organism-based; settings: in vivo
[19] = Cytotoxicity against African green monkey Vero cells; type: toxicity, cell-based, Chlorocebus sabaeus

CN(C(=O)CCCC[C@@H]1SC[C@@H]2NC(=O)N[C@@H]21)S(=O)(=O)NC[C@H]1O[C@@H](n2cnc3c(N)ncnc32)[C@H](O)[C@@H]1O
deltaH [1]: -9.6 kcal/mol | deltaG [2]: -9.7 kcal/mol | pKd [3]: 6.92 | TdeltaS [4]: 0.14 kcal/mol | MIC50 (Staphylococcus aureus [5]): > 30 µM | MIC50 [6]: > 100 µM | MIC50 (Staphylococcus aureus [7]): > 30 µM

Nc1ncnc2c1ncn2[C@@H]1O[C@H](CNS(=O)(=O)[N-]C(=O)NCCC[C@@H]2SC[C@@H]3NC(=O)N[C@@H]32)[C@@H](O)[C@H]1O.[Na+]
clearance [8]: 7 mL/min/kg | AUC [9]: 32 ng·h/mL | half-life [10]: 42 min | pIC50 (HepG2): < 4.00 | AUC(0-t) at 24 h [11]: 11200 ng·h/mL | TdeltaS [4]: 0.5 kcal/mol | MIC50 (Staphylococcus aureus [5]): 0.2 µM | MIC50 [6]: 20 µM | Vd [12]: 0.45 L/kg | MIC50 (Staphylococcus aureus [7]): 0.2 µM

Nc1cccc2c1ncn2CCCCNS(=O)(=O)NC(=O)CCCC[C@@H]1SC[C@@H]2NC(=O)N[C@@H]21
deltaH [1]: -12.3 kcal/mol | deltaG [2]: -9.1 kcal/mol | pKd [3]: 6.66 | TdeltaS [4]: 3.2 kcal/mol | MIC50 (Staphylococcus aureus [5]): > 30 µM | MIC50 [6]: 21 µM | MIC50 (Staphylococcus aureus [7]): > 30 µM

Nc1cccc2c1ncn2[C@@H]1O[C@H](CNS(=O)(=O)NC(=O)CCCC[C@@H]2SC[C@@H]3NC(=O)N[C@@H]32)[C@@H](O)[C@H]1O
deltaH [1]: -13.9 kcal/mol | deltaG [2]: -9.4 kcal/mol | pKd [3]: 6.66 | TdeltaS [4]: 4.5 kcal/mol | MIC50 (Staphylococcus aureus [5]): > 30 µM | MIC50 [6]: > 100 µM | MIC50 (Staphylococcus aureus [7]): > 30 µM

CC(=O)NC[C@H]1CN(c2ccc(N3CCOCC3)c(F)c2)C(=O)O1 [LINEZOLID]
AUC(0-t) at 24 h [13]: 11000 ng·h/mL | clearance [14]: 16.3 mL/min/kg | Vd [15]: 0.63 L/kg | half-life at 24 h [16]: 33 min

Nc1ncnc2c1ncn2[C@@H]1O[C@H](CNS(=O)(=O)[N-]C(=O)CCCC[C@@H]2SC[C@@H]3NC(=O)N[C@@H]32)[C@@H](O)[C@H]1O.[Na+]
clearance [8]: 58 mL/min/kg | AUC [9]: 782 ng·h/mL | deltaH [1]: -18.9 kcal/mol | deltaG [2]: -12.4 kcal/mol | half-life [10]: 11 min | CLH [17]: 22.5 mL/min/kg | AUC(0-t) at 24 h [11]: 1450 ng·h/mL | TdeltaS [4]: 6.6 kcal/mol | MIC50 (Staphylococcus aureus [5]): 0.02 µM | MIC50 [6]: 2.2 µM | Vd [12]: 0.94 L/kg | MIC50 (Staphylococcus aureus [7]): 0.21 µM | CL renal at 24 h [18]: 22.5 mL/min/kg

Nc1ncnc2c1ncn2[C@@H]1O[C@H](CNS(=O)(=O)NCCCCC[C@@H]2SC[C@@H]3NC(=O)N[C@@H]32)[C@@H](O)[C@H]1O
deltaH [1]: -23.2 kcal/mol | deltaG [2]: -10.4 kcal/mol | pKd [3]: 7.64 | TdeltaS [4]: 12.8 kcal/mol | MIC50 (Staphylococcus aureus [5]): 14.4 µM | MIC50 [6]: > 100 µM | MIC50 (Staphylococcus aureus [7]): 28.7 µM

Nc1ncnc2c1ncn2[C@@H]1O[C@H](CNS(=O)(=O)NC(=O)NCCCCC[C@@H]2SC[C@@H]3NC(=O)N[C@@H]32)[C@@H](O)[C@H]1O
deltaH [1]: -9.9 kcal/mol | deltaG [2]: -9.4 kcal/mol | pKd [3]: 6.96 | TdeltaS [4]: 0.48 kcal/mol | MIC50 (Staphylococcus aureus [5]): 12.8 µM | MIC50 [6]: > 100 µM | MIC50 (Staphylococcus aureus [7]): 25.7 µM

Nc1ncnc2c1ncn2[C@@H]1O[C@H](Cn2cc(CCCCC[C@@H]3SC[C@@H]4NC(=O)N[C@@H]43)nn2)[C@@H](O)[C@H]1O
deltaH [1]: -14.2 kcal/mol | deltaG [2]: -9.9 kcal/mol | pKd [3]: 7.21 | TdeltaS [4]: 4.3 kcal/mol | MIC50 (Staphylococcus aureus [5]): 15 µM | MIC50 [6]: > 100 µM | MIC50 (Staphylococcus aureus [7]): 30 µM

C[C@@H]1NC(=O)N[C@@H]1CCCCCC(=O)NS(=O)(=O)NC[C@H]1O[C@@H](n2cnc3c(N)cccc32)[C@H](O)[C@@H]1O
deltaH [1]: -13.6 kcal/mol | deltaG [2]: -10.6 kcal/mol | pKd [3]: 7.72 | TdeltaS [4]: 3 kcal/mol | MIC50 (Staphylococcus aureus [5]): > 30 µM | MIC50 [6]: > 100 µM | MIC50 (Staphylococcus aureus [7]): > 30 µM

Nc1ncnc2c1ncn2[C@@H]1O[C@H](CNS(=O)(=O)NC(=O)NCCCC[C@@H]2SC[C@@H]3NC(=O)N[C@@H]32)[C@@H](O)[C@H]1O
deltaH [1]: -11.5 kcal/mol | deltaG [2]: -9.9 kcal/mol | pKd [3]: 7.26 | TdeltaS [4]: 1.6 kcal/mol | MIC50 (Staphylococcus aureus [5]): 0.12 µM | MIC50 [6]: > 100 µM | MIC50 (Staphylococcus aureus [7]): 0.25 µM

Nc1ncnc2c1ncn2[C@@H]1O[C@H](CNS(N)(=O)=O)[C@@H](O)[C@H]1O
pIC50 [19]: 5.22

Nc1ncnc2c1ncn2[C@@H]1O[C@H](CNS(=O)(=O)NC(=S)NCCCC[C@@H]2SC[C@@H]3NC(=O)N[C@@H]32)[C@@H](O)[C@H]1O
deltaH [1]: -14.2 kcal/mol | deltaG [2]: -9.9 kcal/mol | pKd [3]: 7.22 | TdeltaS [4]: 4.3 kcal/mol | MIC50 (Staphylococcus aureus [5]): 7.2 µM | MIC50 [6]: > 100 µM | MIC50 (Staphylococcus aureus [7]): 28.7 µM

CC(CCC[C@@H]1SC[C@@H]2NC(=O)N[C@@H]21)C(=O)[N-]S(=O)(=O)NC[C@H]1O[C@@H](n2cnc3c(N)ncnc32)[C@H](O)[C@@H]1O.[Na+] (stereo partly drawn)
clearance [8]: 10 mL/min/kg | AUC [9]: 29 ng·h/mL | deltaH [1]: -11.9 kcal/mol | deltaG [2]: -10.4 kcal/mol | half-life [10]: 39 min | AUC(0-t) at 24 h [11]: 8640 ng·h/mL | pKd [3]: 7.66 | TdeltaS [4]: 1.5 kcal/mol | MIC50 (Staphylococcus aureus [5]): 0.2 µM | MIC50 [6]: 50 µM | Vd [12]: 0.54 L/kg | MIC50 (Staphylococcus aureus [7]): 0.41 µM

Nc1ncnc2c1ncn2[C@@H]1O[C@H](Cn2cc(C(=O)CCCC[C@@H]3SC[C@@H]4NC(=O)N[C@@H]43)nn2)[C@@H](O)[C@H]1O
MIC50 (Staphylococcus aureus [5]): 29.4 µM | MIC50 [6]: > 100 µM | MIC50 (Staphylococcus aureus [7]): 29.4 µM

Nc1cccc2c1ncn2[C@@H]1O[C@H](CNS(=O)(=O)NC(=O)CCCC[C@@H]2SC[C@@H]3NC(=O)N[C@@H]32)[C@@H](F)[C@H]1O
deltaH [1]: -13.9 kcal/mol | deltaG [2]: -9.1 kcal/mol | pKd [3]: 6.64 | TdeltaS [4]: 4.8 kcal/mol | MIC50 (Staphylococcus aureus [5]): > 30 µM | MIC50 [6]: > 100 µM | MIC50 (Staphylococcus aureus [7]): > 30 µM
